Assay results taken from US10092541B2, “Methods for the treatment of diseases ameliorated by PDE4 inhibition using dosage titration of apremilast” (CELGENE CORPORATION, priority 2014, dated 2018).
Marks after values point to notes of the source that are not given here.

System: patients with moderate to severe plaque psoriasis
Assay: Esteem 2: randomized, double-blind, placebo controlled, multicenter clinical study in psoriasis
Assay type: in vivo, human
Conditions: for PASI-75, % (LOCF): primary endpoint; for sPGA score 0 (clear) or 1 (almost clear), % (LOCF): with ≥2-point reduction from baseline; for PPPGA score 0 (clear) or 1 (almost clear), %: patients with palmoplantar psoriasis (PPPGA ≥3), n = 26; for ScPGA score 0 (clear) or 1 (minimal), %: patients with scalp psoriasis (ScPGA ≥3), n = 176
Protocol: In the study 413 patients were enrolled; patients ranged in age from 18 to 83 years, with an overall median age of 46 years. The mean baseline body surface area (BSA) involvement was 25.19% (median 21.0%), the mean baseline PASI score was 19.07 (median 16.80), and the proportion of patients with sPGA score of 3 (moderate) and 4 (severe) at Baseline were 70.0% and 29.8%, respectively. Patients were randomized to Apremilast in an amount of 30 mg twice per day (after the initial dose titration schedule) or placebo for the first 16 weeks, and from Weeks 16 to 32, all patients received Apremilast in an amount of 30 mg twice per day.
Target Dose: 30 mg (po) BID
Day 1: 10 mg in the morning
Day 2: 10 mg morning; 10 mg after noon
Day 3: 10 mg morning; 20 mg after noon
Day 4: 20 mg morning; 20 mg after noon
Day 5: 20 mg morning; 30 mg after noon
During the Randomized Treatment Withdrawal Phase (Weeks 32-52), patients originally randomized to Apremilast who achieved at least a 50% reduction in PASI score (PASI-50) were re-randomized to either placebo or Apremilast 30 mg BID. Patients who were re-randomized to placebo and who lost 50% of the improvement in PASI at Week 32 compared to Baseline, were retreated with Apremilast 30 mg BID.

[1] = 61 patients with ≥PASI-50 at Week 32 re-randomized to apremilast
[2] = Week 16, 30 mg BID, n = 274, LOCF
[3] = Week 16, 30 mg BID, n = 274, LOCF, listed as Apremilast
[4] = Week 16, 30 mg BID, n = 274, listed as Apremilast
[5] = Week 16, 30 mg BID, patients with baseline DLQI >5, n = 226
[6] = Week 16, 30 mg BID, patients with nail psoriasis (score ≥1), n = 175
[7] = Week 16, 30 mg BID, listed as Apremilast
[8] = initially randomized to apremilast, did not achieve PASI-50 at Week 32
[9] = patients treated with apremilast from baseline
[10] = placebo at baseline, switched to apremilast at Week 16, achieved PASI-50 at Week 32
[11] = placebo at baseline, switched to apremilast at Week 16, did not achieve PASI-50 at Week 32

## CCOc1cc([C@@H](CS(C)(=O)=O)N2C(=O)c3cccc(NC(C)=O)c3C2=O)ccc1OC [apremilast, (+)-2-[1-(3-ethoxy-4-methoxyphenyl)-2-methylsulfonylethyl]-4-acetylaminoisoindoline-1,3-dione]
30 mg BID
  Non-overlapping confidence intervals vs placebo in improvement in pruritus and skin discomfort/pain from baseline, first detected: as early as Week 2
30 mg BID, first post-baseline visit
  Non-overlapping confidence intervals vs placebo in mean percentage improvement in PASI from baseline, first detected: as early as Week 2
32 patients re-randomized to placebo who lost 50% of PASI improvement and re-initiated apremilast before Week 52
  regained PASI-50 response after re-treatment: 65.6%
36 patients re-randomized to apremilast who were also PASI-75 responders at Week 32
  PASI-75 at Week 52: 66.7%
[1]
  PASI-50 response at Week 52: 80.3%
  mean percent change in PASI at Week 52: −74.4%
  ≥70% improvement from baseline in PASI score at Week 52: 60.7%
Week 16, 30 mg BID
  decrease in pruritus severity from baseline: ~50%
  decrease in skin discomfort/pain severity from baseline: ~50%
  PPPGA score 0 (clear) or 1 (almost clear), %: 65.4%
  ScPGA score 0 (clear) or 1 (minimal), %: 40.9%
Week 16, 30 mg BID, n = 274
  PASI-50, % (LOCF): 55.5%
  PASI-50, % (NRI): 53.6* %
  PASI-75, % (NRI): 28.1* %
  PASI-90, % (LOCF): 8.8%
  sPGA score 0 (clear) or 1 (almost clear), % (NRI): 19.7* %
  PASI-75, % (LOCF): 28.8%
  sPGA score 0 (clear) or 1 (almost clear), % (LOCF): 20.4%
[2]
  Mean % change in PASI score: −50.9%
  Mean change in DLQI score: −6.7*
  Mean change in pruritus VAS score, mm: −33.5 mm
  Mean change in skin discomfort/pain VAS score, mm: −28.5 mm
  Median % change in PASI score: −56.0%
[3]
  Mean % change in PASI score: −50.9* %
  Mean change in pruritus VAS score, mm: −33.5* mm
  Mean change in skin discomfort/pain VAS score, mm: −28.5* mm
[4]
  PASI-50, % (LOCF): 55.5* %
  PASI-90, % (LOCF): 8.8^‡ %
  PASI-75, % (LOCF): 28.8* %
  sPGA score 0 (clear) or 1 (almost clear), % (LOCF): 20.4* %
[5]
  DLQI (decrease of ≥5 points) + PASI-50 response, %: 49.1* %
  DLQI response (decrease of ≥5 points), %: 70.8* %
[6]
  Mean % change in NAPSI score: −29.0** %
  NAPSI-50, %: 44.6%
Week 16, 30 mg BID, patients with nail psoriasis (score ≥1), n = 175, listed as Apremilast
  NAPSI-50, %: 44.6* %
[7]
  PPPGA score 0 (clear) or 1 (almost clear), %: 65.4^|| %
  ScPGA score 0 (clear) or 1 (minimal), %: 40.9* %
Weeks 16 to 32
  Response rates in placebo patients who switched to apremilast at Week 16 vs apremilast in both treatment periods: response rates similar
Did not lead to discontinuation
  Severity of the majority of adverse events: mild to moderate
human, in vivo
  5 most common adverse events (AEs): diarrhea, nausea, upper respiratory tract infection, tension headache, and headache
  Discontinuation due to upper respiratory tract infection: No patient discontinued
  Discontinuations due to AEs: diarrhea: 0.8%
  Discontinuations due to AEs: headache: 0.4%
  Discontinuations due to AEs: nausea: 1.2%
  Discontinuations due to AEs: tension headache: 0.2%
[8]
  PASI-50 at Week 52: 32.8%
  mean percent change from baseline in PASI score at Week 52: −45.7%
Patients re-randomized to apremilast
  median time to first loss of 50% of the PASI improvement obtained at Week 32: 21.9 weeks
[9]
  PASI, sPGA, and DLQI responses from Weeks 16 to 32: generally maintained
  PASI-50, PASI-75, and PASI-90 responses from Weeks 16 to 32: generally maintained
[10]
  PASI-50 at Week 52: 83.1%
  mean percent change in PASI from baseline at Week 52: −71.8%
[11]
  PASI-50 at Week 52: 16.0%
  mean percent change from baseline in PASI at Week 52: −24.7%
Study conclusion
  signs and symptoms of psoriasis: significantly improved
